The text below walks through data of paper PMC5983305, “Bioactive Pyridone Alkaloids from a Deep-Sea-Derived Fungus Arthrinium sp. UJNMF0008” (Marine Drugs, 2018).

SMILES strings stand for the structures.

For the first assay, the system named is Mycobacterium smegmatis ATCC 607. Description: Antimicrobial assay, liquid growth inhibition in 96-well microplates. Particulars: Mycolicibacterium smegmatis; Mycobacterium smegmatis ATCC607; OD 600 nm after 12 h at 37 °C; read-out: Antibacterial activity IC50, MS. The assay is classed as cell-based. The protocol:
(§1) The antimicrobial activity was assayed against the Gram-positive bacterial strains Mycobacterium smegmatis ATCC 607 and Staphylococcus aureus ATCC 25923, Gram-negative Escherichia coli ATCC 8739 and Pseudomonas aeruginosa ATCC 9027 and yeast Candida albicans ATCC10231 by liquid growth inhibition in 96-well microplates. Briefly, precultures of the tested microorganisms were made by inoculating 10 mL of medium (LB medium for bacteria and YM medium for fungus) and incubated for 24 h at 37 °C for bacteria or 48 h at 28 °C for fungus. Then, the cell density was adjusted to 10^4−10^5 cfu mL^−1 by the corresponding broth. An aliquot of 200 μL of the microbial suspension was distributed in each well containing 2-fold serial dilution of the tested compounds. The plate was incubated at 37 °C for 12 h for the bacteria or at 28 °C for 48 h for the fungus, and the optical density of each well was measured at 600 nm spectrophotometrically. IC50 values were defined as the concentration of a compound resulting in a 50% decrease in the number of microbial cultures compared to the blank control. The experiment was run in three replicates.
Turning to `CO[C@]1(c2c[nH]c(=O)c(C(=O)[C@H]3[C@@H]4CC[C@@H](C)C[C@H]4C=C[C@H]3C)c2O)CC[C@@H](O)[C@H](O)[C@H]1O` [Compound 6, Arthpyrone I], the IC50 is 35.3 µM.
Same read-out and setting: with `C[C@@H]1CC[C@H]2[C@H](C(=O)c3c(=O)[nH]cc4c5c(oc34)[C@H](O)[C@H](O)CC5)[C@H](C)C=C[C@@H]2C1` [Compound 4, Arthpyrone G] the figure was above 50 µM; with `CO[C@H]1[C@H](O)CC[C@](O)(c2c[nH]c(=O)c(C(=O)[C@H]3[C@@H]4CC[C@@H](C)C[C@H]4C=C[C@H]3C)c2O)[C@@H]1O` [Compound 5, Arthpyrone H], 19.4 µM; with `CC1CCC2C(C=CC(C)C2C(=O)c2c3c(c[nH]c2=O)C2(O)CCC(O)C(O)C2O3)C1` (stereo not drawn) [Compound 3, Arthpyrone F], 11.4 µM.
As for `CO/N=C(\C(=O)N[C@@H]1C(=O)N2C(C(=O)O)=C(CSc3nc(=O)c(=O)[nH]n3C)CS[C@H]12)c1csc(N)n1` [Ceftriaxone sodium, reference compound], the IC50 is below 1 µM.
The same measure, in the same setting: with `CC1CCC2C(C=CC(C)C2C(=O)c2c(O)c(C3(O)CCC(O)C4OC43)c[nH]c2=O)C1` (stereo not drawn) [Compound 9, apiosporamide] the figure was 2.2 µM.

The next assay concerns Staphylococcus aureus ATCC 25923. Described as above. Particulars: Staphylococcus aureus ATCC25923; OD 600 nm after 12 h at 37 °C; read-out: Antibacterial activity IC50, SA. It is filed as cell-based. As to the method:
as §1
With `CO[C@]1(c2c[nH]c(=O)c(C(=O)[C@H]3[C@@H]4CC[C@@H](C)C[C@H]4C=C[C@H]3C)c2O)CC[C@@H](O)[C@H](O)[C@H]1O` [Compound 6, Arthpyrone I], the IC50 came out at 14.1 µM.
Consider `C[C@@H]1CC[C@H]2[C@H](C(=O)c3c(=O)[nH]cc4c5c(oc34)[C@H](O)[C@H](O)CC5)[C@H](C)C=C[C@@H]2C1` [Compound 4, Arthpyrone G], for which the IC50 worked out at 42.8 µM.
Turning to `CO[C@H]1[C@H](O)CC[C@](O)(c2c[nH]c(=O)c(C(=O)[C@H]3[C@@H]4CC[C@@H](C)C[C@H]4C=C[C@H]3C)c2O)[C@@H]1O` [Compound 5, Arthpyrone H], the IC50 was found to be 8.37 µM.
The same measure, in the same setting: the result for `CC1CCC2C(C=CC(C)C2C(=O)c2c3c(c[nH]c2=O)C2(O)CCC(O)C(O)C2O3)C1` (stereo not drawn) [Compound 3, Arthpyrone F] reads 8.97 µM.
On the same count and under the same terms, the result for `CO/N=C(\C(=O)N[C@@H]1C(=O)N2C(C(=O)O)=C(CSc3nc(=O)c(=O)[nH]n3C)CS[C@H]12)c1csc(N)n1` [Ceftriaxone sodium, reference compound] reads below 1 µM.
On to `CC1CCC2C(C=CC(C)C2C(=O)c2c(O)c(C3(O)CCC(O)C4OC43)c[nH]c2=O)C1` (stereo not drawn) [Compound 9, apiosporamide], for which the IC50 came to 1.66 µM.

What is called IC50 is the midpoint of a concentration-inhibition curve.
